According to patent publication US20240316202A1, “NOVEL PHOTOSENSITIZER” (The University of Tokyo, priority 2020, published 2024):

What was measured:
[1] = Optical characteristics (UV-Vis absorption and fluorescence spectroscopy); type: physicochemical; conditions: physiological conditions
Protocol: UV-visible spectra were obtained with Shimadzu UV-1800. A fluorescence spectroscopic test was performed with Hitachi F7000.
The slit width in the fluorescence measurement was 1 nm for both excitation and light emission. The photomultiplier tube voltage was 400 V. The area under the light emission spectrum of the test sample and the spectral area of the standard sample were determined and calculated by the following equation to determine a relative fluorescence quantum yield (Φfl).
The optical characteristics of the probe (1 μM) were examined in a 0.1 M sodium phosphate buffer containing 0.1% DMSO as a co-solvent.
Therefore, it is expected that HMRIef in which iodine is introduced into the xanthene ring site of HMRef is also placed in the same equilibrium. […] In addition, a fluorescence spectrum was also measured. […]
FIG. 3(a) illustrates the chemical structure and optical characteristics of HMRIef. FIG. 3(b) illustrates the measurement results of the absorption spectrum and fluorescence spectrum of HMRIef (measurement was performed in a 0.1 M sodium phosphate buffer containing 0.1% DMSO as a co-solvent. dye concentration: 1 μM (absorption) or 10 μM (fluorescence)). FIG. 3(c) illustrates the measurement results of the absorption spectra measured in 0.1 M sodium phosphate buffers with various pH containing 0.1% DMSO as a co-solvent (dye concentration: 1 μM). […]

[2] = Detection of singlet oxygen by near infrared spectroscopy; type: physicochemical; conditions: PBS pH 7.4, 0.1% DMSO, dye 1 μM, 508 nm excitation; mean±S.D.
Protocol: Singlet oxygen was detected by measuring ^1O2 light emission near 1,270 nm by laser irradiation using a near infrared emission spectrometer (Fluorolog-3, Horiba, Japan). A dye was dissolved in phosphate buffered saline (PBS) containing 0.1% DMSO as a co-solvent and irradiation was performed with light at a wavelength of 508 nm. In order to calculate a ^1O2 quantum yield, the light emission signal was integrated for each wavelength for 7 seconds. A singlet oxygen generation quantum yield was calculated using Rose bengal (0.75) (DeRosa, M. C. & Crutchley, R. J. Photosensitized singlet oxygen and its applications. Coordination Chemistry Reviews 233-234, 351-371, doi:10.1016/S0010-8545(02)00034-6 (2002)) in PBS as a reference.
Whether HMRIef had photosensitizing ability was examined. In the examination, the singlet oxygen generation ability was evaluated by the light emission intensity at […] under light irradiation conditions using the property that singlet oxygen (^1O2) generated by energy transfer from the photoexcited probe to oxygen molecules emits near-infrared light having a peak top near 1,270 nm.
The right view of FIG. 6 illustrates the light emission spectrum of ^1O2 by 508 nm laser excitation. The dashed line was taken as the background. The spectra were measured in PBS with pH 7.4 containing 0.1% DMSO as a co-solvent (dye concentration: 1 μM). […]

[3] = in PBS, used as reference; cited from earlier work

Row | fluorescence quantum yield (Φfl) [1] | singlet oxygen generation quantum yield [2] | SMILES | singlet oxygen generation quantum yield (reference value) [3]
1 | 0.78 | 0.05±0.14 | O=c1ccc2c(-c3ccccc3CO)c3ccc(NCC(F)(F)F)cc3oc-2c1 [HMRef] | 
2 |  |  | O=C([O-])c1c(Cl)c(Cl)c(Cl)c(Cl)c1-c1c2cc(I)c(=O)c(I)c-2oc2c(I)c([O-])c(I)cc12.[Na+].[Na+] [Rose bengal] | 0.75
